Four compounds from ChEMBL document CHEMBL4261615, “Design, synthesis, biological evaluation and cellular imaging of imidazo[4,5-b]pyridine derivatives as potent and selective TAM inhibitors” (Bioorg Med Chem, 2018) can be followed below.

The target of series [1] is Tyrosine-protein kinase receptor UFO (Homo sapiens) (UniProt P30530). The series can be described thus: Inhibition of recombinant His-tagged human Axl (473 to end residues) cytoplasmic domain expressed in insect system using poly (Glu-Ala-Tyr) peptide as substrate after 1.5 hrs by ELISA. (In general: In an ELISA, binding on a coated surface is turned into a signal by an enzyme label.)
Chain of Tyrosine-protein kinase receptor UFO (Homo sapiens) (P30530 whole entry, the tested form may be a part): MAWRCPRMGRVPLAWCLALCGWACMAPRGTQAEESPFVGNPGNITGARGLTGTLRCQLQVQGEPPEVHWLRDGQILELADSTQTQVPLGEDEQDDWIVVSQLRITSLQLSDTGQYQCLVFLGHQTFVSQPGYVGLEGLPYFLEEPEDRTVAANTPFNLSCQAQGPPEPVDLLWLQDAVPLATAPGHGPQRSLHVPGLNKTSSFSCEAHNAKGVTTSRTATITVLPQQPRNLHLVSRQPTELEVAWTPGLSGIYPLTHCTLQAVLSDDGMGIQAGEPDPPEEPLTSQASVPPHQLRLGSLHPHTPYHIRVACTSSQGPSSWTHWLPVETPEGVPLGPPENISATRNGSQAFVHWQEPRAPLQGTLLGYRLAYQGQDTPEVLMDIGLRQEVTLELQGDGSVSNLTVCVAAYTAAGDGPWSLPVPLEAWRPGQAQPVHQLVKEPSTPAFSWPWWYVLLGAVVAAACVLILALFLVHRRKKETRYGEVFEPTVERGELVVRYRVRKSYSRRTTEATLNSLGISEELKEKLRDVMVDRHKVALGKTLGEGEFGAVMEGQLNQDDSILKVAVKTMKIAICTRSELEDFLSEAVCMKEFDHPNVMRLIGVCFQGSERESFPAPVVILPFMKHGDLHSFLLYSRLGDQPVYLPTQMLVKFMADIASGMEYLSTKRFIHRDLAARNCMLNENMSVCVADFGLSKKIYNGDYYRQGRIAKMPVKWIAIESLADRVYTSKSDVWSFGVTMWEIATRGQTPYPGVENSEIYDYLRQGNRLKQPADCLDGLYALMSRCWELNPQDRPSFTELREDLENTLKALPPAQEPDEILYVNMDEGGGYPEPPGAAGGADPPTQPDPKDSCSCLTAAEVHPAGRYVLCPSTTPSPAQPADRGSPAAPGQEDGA

For series [2], the target named is T1, Tyrosine-protein kinase Mer (Homo sapiens) (UniProt Q12866).
T1 sequence (whole entry): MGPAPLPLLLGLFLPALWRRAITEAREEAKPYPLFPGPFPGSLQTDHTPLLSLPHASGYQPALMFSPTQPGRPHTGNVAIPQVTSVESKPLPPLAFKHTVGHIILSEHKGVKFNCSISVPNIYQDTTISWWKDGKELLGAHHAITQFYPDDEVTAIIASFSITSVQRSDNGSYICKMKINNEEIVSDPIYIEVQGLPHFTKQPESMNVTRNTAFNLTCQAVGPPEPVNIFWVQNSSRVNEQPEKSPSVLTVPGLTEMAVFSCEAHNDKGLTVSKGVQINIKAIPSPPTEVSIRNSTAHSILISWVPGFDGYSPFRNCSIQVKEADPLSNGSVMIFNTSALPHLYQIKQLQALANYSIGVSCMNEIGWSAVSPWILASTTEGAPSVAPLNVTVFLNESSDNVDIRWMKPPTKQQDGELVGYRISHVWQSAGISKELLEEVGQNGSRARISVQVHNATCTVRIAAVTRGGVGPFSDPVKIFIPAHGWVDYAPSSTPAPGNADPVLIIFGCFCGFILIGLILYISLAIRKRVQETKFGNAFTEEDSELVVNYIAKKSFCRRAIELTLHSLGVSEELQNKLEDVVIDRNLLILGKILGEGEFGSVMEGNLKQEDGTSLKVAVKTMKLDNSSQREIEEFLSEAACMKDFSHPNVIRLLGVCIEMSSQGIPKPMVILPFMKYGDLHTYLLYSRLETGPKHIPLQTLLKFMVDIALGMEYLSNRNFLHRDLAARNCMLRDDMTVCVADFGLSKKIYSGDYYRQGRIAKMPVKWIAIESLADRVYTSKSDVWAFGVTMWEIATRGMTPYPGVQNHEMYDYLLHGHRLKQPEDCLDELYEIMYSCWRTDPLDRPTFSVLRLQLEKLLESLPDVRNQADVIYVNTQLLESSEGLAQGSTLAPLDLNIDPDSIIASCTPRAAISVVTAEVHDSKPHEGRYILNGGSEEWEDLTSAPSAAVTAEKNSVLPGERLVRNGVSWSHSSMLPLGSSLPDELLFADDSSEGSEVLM
The series can be described thus: Inhibition of recombinant GST-tagged human Mer (578 to 872 residues) cytoplasmic domain expressed in Baculovirus system using poly (Glu-Ala-Tyr) peptide as substrate after 1.5 hrs by ELISA.

For series [3], the species on record is Homo sapiens. Put plainly: Selectivity ratio of IC50 for recombinant GST-tagged human Mer (578 to 872 residues) cytoplasmic domain to IC50 for recombinant His-tagged human Axl (473 to end residues) cytoplasmic domain.
The species entered for series [4] is Homo sapiens. The series can be described thus: Selectivity ratio of IC50 for recombinant GST-tagged human Tyro3 (451 to 890 residues) cytoplasmic domain to IC50 for recombinant His-tagged human Axl (473 to end residues) cytoplasmic domain.
Series [5] in a line: Solubility of the compound in 0.2% DMSO. In kind it is physicochemical.
Series [6] can be described thus: Drug localization in cytoplasm of human A549 cells at 10 uM after 24 hrs by NanoSIMS analysis. The conditions noted are these: a549, 24 h. Format: ADME, subcellular.
Series [7] in a line: Drug localization in nucleus of human MGHU3 cells at 10 uM after 24 hrs by NanoSIMS analysis. Format: ADME, subcellular. The note with it: mghu3, 24 h.
Series [8] in a line: Drug localization in nucleus of human A549 cells at 10 uM after 24 hrs by NanoSIMS analysis. In kind it is ADME, subcellular. The conditions noted are these: a549, 24 h.

Structures are written as SMILES. Calls of active or inactive are those of the source. The calls are words filed in the database; no cut-off is given here.

For the compound `O=C(Nc1ccc(Oc2ccnc3[nH]cnc23)c(F)c1)c1cccn(-c2ccc(F)cc2)c1=O`, the inhibition result in series [1] and in series [2] was “Active” in each case. The Ratio IC50 in the series listed under Homo sapiens [3] and in the series listed under Homo sapiens [4] was 120 to 900 throughout.

Regarding `O=C(Nc1ccc(Oc2c(Br)cnc3[nH]cnc23)c(F)c1)c1cccn(-c2ccc(F)cc2)c1=O`, the inhibition entry in series [1] and in series [2] was “inactive” throughout. Moreover, the solubility result in series [5] is on record as “Insoluble”.

For `Cc1cnc2[nH]cnc2c1Oc1ccc(NC(=O)c2cccn(-c3ccc(F)cc3)c2=O)cc1F`, the inhibition entry in series [1] and in series [2] was “inactive” in each case.

Take `CC(C)c1nc2c(Oc3ccc(NC(=O)c4cccn(-c5ccc(F)cc5)c4=O)cc3F)ccnc2[nH]1`: the Drug uptake entry in series [6], in series [7] and in series [8] was “Active” each time. The inhibition result in series [1] was “inactive”. Moreover, the inhibition result in series [2] was “Active”.
